# Measured values taken from publication PMC10250256, “A radiohybrid theranostics ligand labeled with fluorine-18 and lutetium-177 for fibroblast activation protein-targeted imaging and radionuclide therapy” (European Journal of Nuclear Medicine and Molecular Imaging, 2023).
# Columns and labels:
# [1] = in vitro stability in PBS or murine serum (radio-HPLC); format: in vitro ADME
# Protocol: [^18F]21 or [^177Lu]21 (50 μCi, 10 μL) was added to PBS (90 μL) or murine serum (90 μL) and the mixture was incubated at 37 °C for a certain time ([^18F]21: 2 h, [^177Lu]21: 8 d). The PBS mixture was injected directly into the radio-HPLC for analysis. The murine serum was precipitated with 0.1 mL of acetonitrile and centrifuged (10,000 rpm, 5 min). The supernatant was measured and analyzed by the radio-HPLC to determine the stability. For in vivo stability study, the radio tracers were injected into the tail vein of ICR mice and samples of blood were collected after a certain time post injection (pi) ([^18F]21: 4 h, [^177Lu]21: 9 h). The plasma proteins were precipitated using an equal volume of acetonitrile and centrifuged (10,000 rpm, 5 min). The RCP of radio tracer in supernatants were analyzed and quantified by radio-HPLC. The radio-HPLC method was as follows: A: 0.1% TFA in H2O, B: ACN, 0–10 min, 0–100% B. The flow rate was 1 mL/min, and the C18 column (4.6 × 150 mm, 5 μm, ZORBAX, Agilent) was used. When using HPLC to assess the stability of [^177Lu]21, the effluent was collected every 30 s due to its less radioactivity, and samples were measured by an automatic γ-counter (2480 Wizard2, Perkin Elmer). The counted samples were plotted as intensity (cpm) against fraction.
# [2] = test system: HT-1080-FAP tumor-bearing mice; test: biodistribution in HT-1080-FAP tumor-bearing mice; format: in vivo, BALB/C-nu/nu mice; details: i.v.
# Protocol: All animal experiments were conducted in compliance with a protocol approved by the First Affiliated Hospital of Sun Yat-sen University Institutional Animal Care and Use Committee. BALB/C-nu/nu mice (4–5-week old with body weight of 16–22 g) were purchased from GemPharmatech Co., Ltd. Mice were housed under standard conditions with temperature and light control (12-h-light/12-h-dark cycle) and had free access to water and food. For the tumor model, HT-1080-FAP or HT-1080 cells (5 × 10^6) were subcutaneously injected into the right or left flank of nude mice, respectively. As the tumor diameter reached 3–4 mm, mice were treated with radioligands. Micro-PET and SPECT imaging studies, as well as biodistribution, were conducted when the tumor diameter reached 5–10 mm.
# [^177Lu]21 (~ 0.925 MBq) was injected via the tail vein of HT-1080-FAP tumor-bearing mice. The animals were sacrificed at 4, 24, 48 and 96 h pi. Organs of interest were dissected, weighed and counted with a γ-counter. The data were normalized to percentage injected dose (%ID/g) with standard dilution of the initial dose. The biodistribution of [^177Lu]Lu-FAPI-04 was conducted at 24 h pi for comparison.
smiles,measurement,setting,value
CC(C)(C)[Si](F)(c1ccc(C(=O)NCC(NC(=O)CCC(C(=O)O)N2CCN(CC(=O)[O-])CCN(CC(=O)[O-])CCN(CC(=O)[O-])CC2)C(=O)NCC2CCC(C(=O)NCCCOc3ccc4nccc(C(=O)NCC(=O)N5CC(F)(F)CC5C#N)c4c3)CC2)cc1)C(C)(C)C.[177Lu+3] (stereo not shown) [[^177Lu]21],RCP after incubating in saline and serum,"[1]; 8 days, 37 °C",> 90%
same,in vitro stability,[1]; as summarised in discussion,> 90%
same,Tumor/ Kidney ratio,[2]; 4 h pi,2.15 ± 0.55
same,Tumor/Blood ratio,[2]; 4 h pi,2.63 ± 0.23
same,Tumor/Liver ratio,[2]; 4 h pi,3.98 ± 1.00
same,Tumor/Muscle ratio,[2]; 4 h pi,6.36 ± 0.27
same,uptake in HT-1080-FAP tumor,[2]; 4 h pi,9.82 ± 1.35 %ID/g
same,uptake in blood,[2]; 4 h pi,3.73 ± 0.36 %ID/g
same,uptake in bone,[2]; 4 h pi,6.76 ± 0.51 %ID/g
same,uptake in brain,[2]; 4 h pi,0.14 ± 0.01 %ID/g
same,uptake in heart,[2]; 4 h pi,1.97 ± 0.09 %ID/g
same,uptake in intestine,[2]; 4 h pi,2.12 ± 0.5 %ID/g
same,uptake in kidney,[2]; 4 h pi,4.70 ± 0.89 %ID/g
same,uptake in liver,[2]; 4 h pi,2.56 ± 0.57 %ID/g
same,uptake in lung,[2]; 4 h pi,3.33 ± 0.97 %ID/g
same,uptake in muscle,[2]; 4 h pi,1.54 ± 0.14 %ID/g
same,uptake in pancreas,[2]; 4 h pi,4.03 ± 0.93 %ID/g
same,uptake in skin,[2]; 4 h pi,3.60 ± 0.56 %ID/g
same,uptake in spleen,[2]; 4 h pi,1.53 ± 0.25 %ID/g
same,uptake in stomach,[2]; 4 h pi,1.80 ± 0.52 %ID/g
same,Tumor/ Kidney ratio,[2]; 24 h pi,1.73 ± 0.32
same,Tumor/Blood ratio,[2]; 24 h pi,13.77 ± 4.99
same,Tumor/Liver ratio,[2]; 24 h pi,1.84 ± 0.41
same,Tumor/Muscle ratio,[2]; 24 h pi,7.03 ± 1.39
same,uptake in HT-1080-FAP tumor,[2]; 24 h pi,2.98 ± 0.98 %ID/g
same,uptake in blood,[2]; 24 h pi,0.22 ± 0.03 %ID/g
same,uptake in bone,[2]; 24 h pi,2.46 ± 0.74 %ID/g
same,uptake in brain,[2]; 24 h pi,0.02 ± 0.00 %ID/g
same,uptake in heart,[2]; 24 h pi,0.61 ±0.43 %ID/g
same,uptake in intestine,[2]; 24 h pi,0.37 ± 0.03 %ID/g
same,uptake in kidney,[2]; 24 h pi,1.72 ± 0.45 %ID/g
same,uptake in liver,[2]; 24 h pi,1.63 ± 0.44 %ID/g
same,uptake in lung,[2]; 24 h pi,0.46 ± 0.11 %ID/g
same,uptake in muscle,[2]; 24 h pi,0.42 ± 0.09 %ID/g
same,uptake in pancreas,[2]; 24 h pi,0.69 ± 0.14 %ID/g
same,uptake in skin,[2]; 24 h pi,1.07 ± 0.32 %ID/g
same,uptake in spleen,[2]; 24 h pi,0.69 ± 0.13 %ID/g
same,uptake in stomach,[2]; 24 h pi,0.39 ± 0.11 %ID/g
same,Tumor/ Kidney ratio,[2]; 48 h pi,1.60 ± 0.19
same,Tumor/Blood ratio,[2]; 48 h pi,56.58 ± 6.63
same,Tumor/Liver ratio,[2]; 48 h pi,3.66 ± 0.52
same,Tumor/Muscle ratio,[2]; 48 h pi,11.31 ± 1.41
same,uptake in HT-1080-FAP tumor,[2]; 48 h pi,2.43 ± 0.04 %ID/g
same,uptake in blood,[2]; 48 h pi,0.04 ± 0.01 %ID/g
same,uptake in bone,[2]; 48 h pi,3.09 ± 0.86 %ID/g
same,uptake in heart,[2]; 48 h pi,0.27 ± 0.05 %ID/g
same,uptake in intestine,[2]; 48 h pi,0.12 ± 0.02 %ID/g
same,uptake in kidney,[2]; 48 h pi,1.53 ± 0.21 %ID/g
same,uptake in liver,[2]; 48 h pi,0.67 ± 0.11 %ID/g
same,uptake in lung,[2]; 48 h pi,0.53 ± 0.4 %ID/g
same,uptake in muscle,[2]; 48 h pi,0.22 ± 0.03 %ID/g
same,uptake in pancreas,[2]; 48 h pi,0.35 ± 0.04 %ID/g
same,uptake in skin,[2]; 48 h pi,0.58 ± 0.09 %ID/g
same,uptake in spleen,[2]; 48 h pi,0.81 ± 0.18 %ID/g
same,uptake in stomach,[2]; 48 h pi,0.32 ± 0.04 %ID/g
same,Tumor/ Kidney ratio,[2]; 96 h pi,1.11 ± 0.04
same,Tumor/Blood ratio,[2]; 96 h pi,102.33 ± 11.24
same,Tumor/Liver ratio,[2]; 96 h pi,0.93 ± 0.01
same,Tumor/Muscle ratio,[2]; 96 h pi,9.0 ± 1.35
same,uptake in HT-1080-FAP tumor,[2]; 96 h pi,1.02 ± 0.11 %ID/g
same,uptake in blood,[2]; 96 h pi,0.01 ± 0.00 %ID/g
same,uptake in bone,[2]; 96 h pi,3.02 ± 0.69 %ID/g
same,uptake in brain,[2]; 96 h pi,0.01 ± 0.00 %ID/g
same,uptake in heart,[2]; 96 h pi,0.16 ± 0.03 %ID/g
same,uptake in intestine,[2]; 96 h pi,0.11 ± 0.01 %ID/g
same,uptake in kidney,[2]; 96 h pi,0.92 ± 0.13 %ID/g
same,uptake in liver,[2]; 96 h pi,1.10 ± 0.12 %ID/g
same,uptake in lung,[2]; 96 h pi,0.57 ± 0.34 %ID/g
same,uptake in muscle,[2]; 96 h pi,0.12 ± 0.03 %ID/g
same,uptake in pancreas,[2]; 96 h pi,0.15 ± 0.03 %ID/g
same,uptake in skin,[2]; 96 h pi,0.35 ± 0.05 %ID/g
same,uptake in spleen,[2]; 96 h pi,0.43 ± 0.07 %ID/g
same,uptake in stomach,[2]; 96 h pi,0.20 ± 0.01 %ID/g
